This is an account of results in patent US7524844B2, “Dipeptidyl peptidase IV inhibitors, process for their preparation and compositions containing them” (Glenmark Pharmaceuticals S.A., priority 2004, dated 2009).

The pIC50 is −log10 of the IC50, conventionally taken in molar units.

Structures are written as SMILES. pIC50: −log10 of the molar value.

T1 sequence (P27487 whole entry): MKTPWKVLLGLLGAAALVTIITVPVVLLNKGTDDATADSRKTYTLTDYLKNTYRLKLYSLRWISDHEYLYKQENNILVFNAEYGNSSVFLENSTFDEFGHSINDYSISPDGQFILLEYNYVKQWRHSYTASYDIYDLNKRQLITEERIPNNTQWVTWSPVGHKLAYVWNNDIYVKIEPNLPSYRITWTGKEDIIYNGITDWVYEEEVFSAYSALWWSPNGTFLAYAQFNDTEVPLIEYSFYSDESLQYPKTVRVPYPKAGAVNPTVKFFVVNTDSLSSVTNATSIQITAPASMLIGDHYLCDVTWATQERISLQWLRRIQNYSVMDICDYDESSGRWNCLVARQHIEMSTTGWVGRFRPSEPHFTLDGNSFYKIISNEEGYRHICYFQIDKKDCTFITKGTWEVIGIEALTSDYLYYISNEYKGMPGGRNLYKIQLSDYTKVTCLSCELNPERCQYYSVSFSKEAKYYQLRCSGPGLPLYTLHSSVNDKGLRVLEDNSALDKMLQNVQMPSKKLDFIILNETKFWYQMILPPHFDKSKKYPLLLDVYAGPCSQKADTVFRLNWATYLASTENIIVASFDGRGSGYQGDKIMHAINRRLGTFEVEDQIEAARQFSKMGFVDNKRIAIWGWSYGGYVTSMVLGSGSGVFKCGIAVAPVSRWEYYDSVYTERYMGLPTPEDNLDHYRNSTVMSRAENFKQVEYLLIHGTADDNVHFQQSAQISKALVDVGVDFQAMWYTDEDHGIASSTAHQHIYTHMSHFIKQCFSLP

This assay addresses T1, human recombinant Dipeptidyl peptidase IV enzyme (DPP-IV) (Homo sapiens, UniProt P27487).
T1 construct: purchased R&D Systems Inc. of Minneapolis, Minn
In words: in-vitro DPP-IV assay (cleavage of AMC from Gly-Pro-AMC). In kind it is biochemical. Conditions: human recombinant DPP-IV, Gly-Pro-AMC substrate, 30° C., 30 minutes; read-out: DPP-IV inhibition using human recombinant DPP-IV enzyme, IC50. How it is done: DPP-IV activity was determined by the cleavage rate of 7-amino-4-methyl coumarin (AMC) from the synthetic substrate Glycyl-Prolyl-AMC. In brief, the assay was conducted by adding 10 ng of human recombinant Dipeptidyl peptidase IV enzyme (DPP-IV, available commercially from R&D Systems Inc. of Minneapolis, Minn.) in 50 μl of the assay buffer (25 mM Tris, pH 7.4, 140 mM NaCl, 10 mM KCl, 1% BSA) to 96 well black flat bottom microtiter plates. The reaction was initiated by adding 50 μl of 100 μM substrate Gly-Pro-AMC. The incubation was carried out in the kinetic mode at 30° C. for 30 minutes. Fluorescence was measured using Fluorostar with an excitation filter of 380 nm and emission filter of 460 nm. Test compounds and solvent controls were added as 1 μl additions. A standard curve of free amino methyl coumarin (AMC) was generated using 0-100 μM AMC in the assay buffer. The curve generated, which was linear was used for the interpolation of catalytic activity.
Test compounds dissolved in DMSO at 5-6 concentrations were tested in duplicate along with the solvent control and blank samples. Percent inhibition was calculated at each concentration with respect to the solvent control sample (no test compound added). […]
As to `N#C[C@@H]1CCCN1C(=O)CN[C@@H]1CC[C@H](CN2Cc3ccccc3C2)C1` [Example-65, (2S)-1-{2-[(3S,1R)-3-(2,3-Dihydro-1H-2-isoindolylmethyl)cyclopentylamino]acetyl}-pyrrolidine-2-carbonitrile], the pIC50 was 7.88.
Then `N#CC[C@H]1CC[C@@H](NCC(=O)N2C[C@@H](F)C[C@H]2C#N)C1` [Example-7, (2S,4S)-1-{2-[(3S,1R)-3-Cyanomethylcyclopentylamino]acetyl}-4-fluoro-2-pyrrol-idinecarbonitrile], with 8.37; and `N#C[C@@H]1CCCN1C(=O)CN[C@@H]1CC[C@H](CNC(=O)Nc2ccc(F)cc2F)C1` [Example-14, N1-(2,4-Difluorophenyl)-N3-((1S,3R)-3-{2-[(2S)-2-cyanopyrrolidin-1-yl]-2-oxoethyl-amino}cyclopentylmethyl)urea], with 7.58.
The figure for `N#C[C@@H]1CCCN1C(=O)CN[C@@H]1CC[C@H](Cn2cnc3ccccc32)C1` [Example-69, (2S)-1-{2-[(3S,1R)-3-(1H-Benzo[d]imidazol-1-ylmethyl)cyclopenylamino]acetyl}-pyrrolidine-2-carbonitrile] is 8.35.
